Reference: US20150284381A1, “AMINO-PYRIDINE-CONTAINING SPLEEN TYROSINE KINASE (SYK) INHIBITORS” (MERCK SHARP & DOHME CORP., priority 2012, published 2015)

Tested on: not given
Experiment: not given
Settings: phase II clinical trial, allergic rhinitis; cited from earlier work
For `Oc1cccc(Nc2ncc(F)c(Nc3cccc(O)c3)n2)c1` [Example R112], the efficacy versus placebo is listed as “lack of efficacy versus placebo”.

Tested on: PGD2
Experiment: not given
Settings: dosed intranasally, phase I/II study, allergic rhinitis; cited from earlier work
In the case of `Oc1cccc(Nc2ncc(F)c(Nc3cccc(O)c3)n2)c1` [Example R112], the PGD2 is listed as “statistically significant decrease” and the clinical safety is listed as “safe across a range of indicators”.

Target: T1, recombinant human GST-Syk (Homo sapiens, UniProt P43405)
T1 construct: purchased Carna Biosciences 08-176
Experiment: Homogeneous Time-Resolved Fluorescence (HTRF) assay for the recombinant human Syk enzyme
Format: biochemical
Settings: recombinant human GST-Syk 5 pM, ATP 25 μM, 45 min at rt, read-out: rhSyk
Method: Homogeneous Time-Resolved Fluorescence (HTRF) Assay for the Recombinant Human Syk Enzyme
A recombinant GST-hSyk fusion protein was used to measure potency of compounds to inhibit human Syk activity. The recombinant human GST-Syk (Carna Biosciences #08-176) (5 pM nominal concentration) was incubated with various concentrations of the inhibitor diluted in DMSO (0.1% final concentration) for 10 minutes at rt in 15 mM Tris-HCl (pH 7.5), 0.01% tween 20, 2 mM DTT in 384 well plate format. To initiate the reaction the biotinylated substrate peptide (250 nM final concentration) that contains the phosphorylation site for Syk was added with magnesium (5 mM final concentration) and ATP (25 μM final concentration). Final volume of the reaction was 10 μL. Phosphorylation of the peptide was allowed to proceed for 45′ at rt. To quench the reaction and detect the phosphorylated product, 2 nM of a Europium-anti-phosphotyrosine antibody (Perkin Elmer #AD0161) and 70 nM SA-APC (Perkin-Elmer #CR130-100) were added together in 15 mM Tris pH 7.5, 40 mM EDTA, 0.01% tween 20. Final volume of the quenching solution was 10 μL. The resulting HTRF signal was measured after 30 minutes on a EnVision (Perkin-Elmer) reader using a time-resolved fluorescence protocol. IC50 was determined following 10-dose titration (10 μM to 0.508 nM) and four parameter logistic curve fitting using an assay data analyzer.
`Cc1cc(Nc2cc(C(C)F)ccn2)nc(-c2cnc(C3(O)CCCc4cc(C(=O)O)ccc43)s2)c1` (single isomer, unassigned) [Example 8D, 5-(5-(6-((4-(1-Fluoroethyl)pyridin-2-yl)amino)-4-methylpyridin-2-yl)thiazol-2-yl)-5-hydroxy-5,6,7,8-tetrahydronaphthalene-2-carboxylic acid] showed an IC50 of 0.1 nM.
Work on `Cc1ccnc(Nc2cc(C)cc(-c3cnc([C@@]4(O)CCc5cc(C(=O)O)ccc54)s3)n2)c1` [Example 2A, (1R)-1-hydroxy-1-(5-{4-methyl-6-[(4-methylpyridin-2-yl)amino]pyridin-2-yl}-1,3-thiazol-2-yl)-2,3-dihydro-1H-indene-5-carboxylic acid] yielded an IC50 of 0.15 nM.
Work on `CCc1ccnc(Nc2cc(C)cc(-c3cnc([C@@]4(O)CCc5cc(C(=O)O)ccc54)s3)n2)c1` [Example 2B, (1R)-1-(5-{6-[(4-ethylpyridin-2-yl)amino]-4-methylpyridin-2-yl}-1,3-thiazol-2-yl)-1-hydroxy-2,3-dihydro-1H-indene-5-carboxylic acid] yielded an IC50 of 0.17 nM.
Work on `Cc1cc(Nc2cc(C3CC3)ccn2)nc(-c2cnc([C@@]3(O)CCc4cc(C(=O)O)ccc43)s2)c1` [Example 2C, (1R)-1-(5-{6-[(4-cyclopropylpyridin-2-yl)amino]-4-methylpyridin-2-yl}-1,3-thiazol-2-yl)-1-hydroxy-2,3-dihydro-1H-indene-5-carboxylic acid] yielded an IC50 of 0.55 nM.
`CCOc1ccnc(Nc2cc(C)cc(-c3cnc([C@@]4(O)CCc5cc(C(=O)O)ccc54)s3)n2)c1` [Example 2D, (1R)-1-(5-{6-[(4-ethoxypyridin-2-yl)amino]-4-methylpyridin-2-yl}-1,3-thiazol-2-yl)-1-hydroxy-2,3-dihydro-1H-indene-5-carboxylic acid] gave an IC50 of 0.74 nM.
With `CCOc1ccnc(Nc2cc(C)cc(-c3cnc([C@@]4(O)CCCc5cc(C(=O)O)ccc54)s3)n2)c1` [Example 2E, (5R)-5-(5-{6-[(4-ethoxypyridin-2-yl)amino]-4-methylpyridin-2-yl}-1,3-thiazol-2-yl)-5-hydroxy-5,6,7,8-tetrahydronaphthalene-2-carboxylic acid] the IC50 was 0.16 nM.
With `CCc1ccnc(Nc2cc(C)cc(-c3cnc([C@@]4(O)CCCc5cc(C(=O)O)ccc54)s3)n2)c1` [Example 2F, (5R)-5-(5-{6-[(4-ethylpyridin-2-yl)amino]-4-methylpyridin-2-yl}-1,3-thiazol-2-yl)-5-hydroxy-5,6,7,8-tetrahydronaphthalene-2-carboxylic acid] the IC50 was 0.2 nM.
`COc1ccnc(Nc2cc(C)cc(-c3cnc([C@@]4(O)CCc5cc(C(=O)O)ccc54)s3)n2)c1` [Example 2G, (1R)-1-hydroxy-1-(5-{6-[(4-methoxypyridin-2-yl)amino]-4-methylpyridin-2-yl}-1,3-thiazol-2-yl)-2,3-dihydro-1H-indene-5-carboxylic acid] gave an IC50 of 0.16 nM.
Molecule `CCCOc1ccnc(Nc2cc(C)cc(-c3cnc([C@@]4(O)CCc5cc(C(=O)O)ccc54)s3)n2)c1` [Example 2H, (1R)-1-hydroxy-1-(5-{4-methyl-6-[(4-propoxypyridin-2-yl)amino]pyridin-2-yl}-1,3-thiazol-2-yl)-2,3-dihydro-1H-indene-5-carboxylic acid] has an IC50 of 0.06 nM.
For `Cc1cc(Nc2cc(C(F)F)ccn2)nc(-c2cnc([C@@]3(O)CCc4cc(C(=O)O)ccc43)s2)c1` [Example 2i, (1R)-1-[5-(6-{[4-(difluoromethyl)pyridin-2-yl]amino}-4-methylpyridin-2-yl)-1,3-thiazol-2-yl]-1-hydroxy-2,3-dihydro-1H-indene-5-carboxylic acid], the IC50 was 0.13 nM.
In the case of `Cc1cc(Nc2cc(C3CCCC(C)C3)ccn2)nc(-c2cnc([C@@]3(O)CCCc4cc(C(=O)O)ccc43)s2)c1` (stereo partly drawn) [Example 3A, (5R)-5-hydroxy-5-[5-(4-methyl-6-{[4-(3-methylcyclohexyl)pyridin-2-yl]amino}pyridin-2-yl)-1,3-thiazol-2-yl]-5,6,7,8-tetrahydronaphthalene-2-carboxylic acid], the IC50 is reported as 1.8 nM.
With `Cc1cc(Nc2cc(C3CCC(C)CC3)ccn2)nc(-c2cnc([C@@]3(O)CCCc4cc(C(=O)O)ccc43)s2)c1` (stereo partly drawn) [Example 3B, (5R)-5-hydroxy-5-[5-(4-methyl-6-{[4-(4-methylcyclohexyl)pyridin-2-yl]amino}pyridin-2-yl)-1,3-thiazol-2-yl]-5,6,7,8-tetrahydronaphthalene-2-carboxylic acid] the IC50 was 2 nM.
Work on `CCC(CC)c1ccnc(Nc2cc(C)cc(-c3cnc([C@@]4(O)CCCc5cc(C(=O)O)ccc54)s3)n2)c1` [Example 3C, (5R)-5-[5-(6-{[4-(1-ethylpropyl)pyridin-2-yl]amino}-4-methylpyridin-2-yl)-1,3-thiazol-2-yl]-5-hydroxy-5,6,7,8-tetrahydronaphthalene-2-carboxylic acid] yielded an IC50 of 0.5 nM.
Work on `CCCc1ccnc(Nc2cc(C)cc(-c3cnc([C@@]4(O)CCc5cc(C(=O)O)ccc54)s3)n2)c1` [Example 3D, (1R)-1-hydroxy-1-(5-{4-methyl-6-[(4-propylpyridin-2-yl)amino]pyridin-2-yl}-1,3-thiazol-2-yl)-2,3-dihydro-1H-indene-5-carboxylic acid] yielded an IC50 of 0.08 nM.
Molecule `CCCc1ccnc(Nc2cc(C)cc(-c3cnc([C@@]4(O)CCCc5cc(C(=O)O)ccc54)s3)n2)c1` [Example 3E, (5R)-5-hydroxy-5-(5-{4-methyl-6-[(4-propylpyridin-2-yl)amino]pyridin-2-yl}-1,3-thiazol-2-yl)-5,6,7,8-tetrahydronaphthalene-2-carboxylic acid] has an IC50 of 0.42 nM.
Molecule `COC(=O)c1ccc2c(c1)CCCC2(O)c1ncc(-c2cc(C)cc(Nc3cc(-c4cn[nH]c4)ccn3)n2)s1` (stereo not drawn) [Example 4A, Methyl 5-(5-(6-((4-(1H-pyrazol-4-yl)pyridin-2-yl)amino)-4-methylpyridin-2-yl)thiazol-2-yl)-5-hydroxy-5,6,7,8-tetrahydronaphthalene-2-carboxylate] has an IC50 of 2.38 nM.
For `Cc1cc(Nc2cc(-c3cn[nH]c3)ccn2)nc(-c2cnc([C@@]3(O)CCc4cc(C(=O)O)ccc43)s2)c1` [Example 5A, (1R)-1-hydroxy-1-[5-(4-methyl-6-{[4-(1H-pyrazol-4-yl)pyridin-2-yl]amino}pyridin-2-yl)-1,3-thiazol-2-yl]-2,3-dihydro-1H-indene-5-carboxylic acid], the IC50 was 0.04 nM.
Work on `Cc1cc(Nc2cc(-c3c[nH]nn3)ccn2)nc(-c2cnc([C@@]3(O)CCCc4cc(C(=O)N(C)C)ccc43)s2)c1` [Example 6A, (5R)-5-hydroxy-N,N-dimethyl-5-[5-(4-methyl-6-{[4-(1H-1,2,3-triazol-4-yl)pyridin-2-yl]amino}pyridin-2-yl)-1,3-thiazol-2-yl]-5,6,7,8-tetrahydronaphthalene-2-carboxamide] yielded an IC50 of 0.73 nM.
